The test relates to PBMC of newly diagnosed T1D patients. Nature of the test: GAD65 HLA class I tetramer staining and flow cytometry of stimulated PBMC, T1D patients. It is filed as cell-based, human.

For VMNILLQYV [GAD65 peptide], the “% of CD3+/CD8+/GAD65 reactive T cells (specificity of the response)” value is listed as 6.39%.

These data come from patent US20070026465A1, “Method for detecting GAD65 autoreactive T cells newly diagnosed type1 diabetic patients and in the prediabetic period” (priority 2005, published 2007).
